The target of the experiment is T1, short form of the GPR120 receptor (Homo sapiens, UniProt Q5NUL3).
T1 construct: host or cells: PathHunter CHO-K1 GPR120S β-Arrestin Cell Line
As to the kind of experiment: Human GPR120 DiscoveRx PathHunter Beta-Arrestin assay, Procedure β-arrestin B. It is filed as cell-based.

SMILES strings stand for the structures.

T1 sequence (Q5NUL3 whole entry): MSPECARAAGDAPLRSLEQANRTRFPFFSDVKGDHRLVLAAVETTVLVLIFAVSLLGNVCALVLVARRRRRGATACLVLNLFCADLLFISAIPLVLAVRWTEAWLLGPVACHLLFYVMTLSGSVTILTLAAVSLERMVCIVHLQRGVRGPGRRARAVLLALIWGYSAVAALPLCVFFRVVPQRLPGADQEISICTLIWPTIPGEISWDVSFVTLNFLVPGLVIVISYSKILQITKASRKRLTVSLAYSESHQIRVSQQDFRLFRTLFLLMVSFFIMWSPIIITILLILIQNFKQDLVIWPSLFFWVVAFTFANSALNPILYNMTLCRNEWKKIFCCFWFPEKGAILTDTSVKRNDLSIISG
T1 sequence (P32121 whole entry partner): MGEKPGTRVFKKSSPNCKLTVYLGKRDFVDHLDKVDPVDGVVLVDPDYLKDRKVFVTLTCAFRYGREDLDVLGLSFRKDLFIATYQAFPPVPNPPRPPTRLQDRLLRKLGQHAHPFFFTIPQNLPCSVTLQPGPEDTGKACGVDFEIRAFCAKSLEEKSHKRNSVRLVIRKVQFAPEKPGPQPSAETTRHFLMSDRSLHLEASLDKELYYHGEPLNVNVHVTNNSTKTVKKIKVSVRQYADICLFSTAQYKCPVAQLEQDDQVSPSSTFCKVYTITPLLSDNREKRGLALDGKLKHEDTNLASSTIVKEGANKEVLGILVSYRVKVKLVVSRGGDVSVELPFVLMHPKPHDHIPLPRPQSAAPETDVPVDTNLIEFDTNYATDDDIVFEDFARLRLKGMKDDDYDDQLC

Regarding `Cc1c(CCC(=O)O)ccc(OCC2=C(c3ccc(Cl)nc3)CCC2)c1C` [Compound 158, 3-(4-((2-(6-chloropyridin-3-yl)cyclopent-1-en-1-yl)methoxy)-2,3-dimethylphenyl)Propanoic Acid], the EC50 was found to be 324 nM.
`Cc1cc(CCC(=O)O)ccc1OCC1=C(c2ccc(Cl)c(F)c2)CCC1` [Compound 159, 3-(4-((2-(4-chloro-3-fluorophenyl)cyclopent-1-en-1-yl)methoxy)-3-methylphenyl)Propanoic Acid] yielded a half-maximal effective concentration (EC50) of 56 nM.
To `Cc1cc(CCC(=O)O)ccc1OCC1=C(c2ccc(Cl)cc2)CCC(F)(F)C1` [Compound 467, 3-(4-((4′-chloro-4,4-difluoro-3,4,5,6-tetrahydro-[1,1′-biphenyl]-2-yl)methoxy)-3-methylphenyl)Propanoic Acid] belongs 104 nM.
For `Cc1c(CCC(=O)O)ccc(OCC2=C(c3ccc(Cl)cc3)CCC(F)(F)C2)c1C` [Compound 468, 3-[4-[[2-(4-chlorophenyl)-5,5-difluoro-cyclohexen-1-yl]methoxy]-2,3-dimethyl-phenyl]Propanoic Acid], the EC50 turned out to be 244 nM.
As for `Cc1c(CCC(=O)O)ccc(OCC2=C(c3ccccc3)CCCC2)c1C` [Compound 472, 3-[2,3-dimethyl-4-[(2-phenylcyclohexen-1-yl)methoxy]phenyl]Propanoic Acid], the figure is 488 nM; as for `Cc1c(CCC(=O)O)ccc(OCC2=C(c3ccc(Cl)cc3)CCCC2)c1C` [Compound 474, 3-[4-[[2-(4-chlorophenyl)cyclohexen-1-yl]methoxy]-2,3-dimethyl-phenyl]Propanoic Acid], 1030 nM; as for `O=C(O)CCc1c(F)c(F)c(OCC2=C(c3ccc(Cl)cc3)CCCC2)c(F)c1F` [Compound 479, 3-[4-[[2-(4-chlorophenyl)cyclohexen-1-yl]methoxy]-2,3,5,6-tetrafluoro-phenyl]Propanoic Acid], 682 nM.
As for `Cc1ccc(C2=C(COc3c(F)cc(CCC(=O)O)cc3F)CCCC2)cc1F` [Compound 493, 3-[3,5-difluoro-4-[[2-(3-fluoro-4-methyl-phenyl)cyclohexen-1-yl]methoxy]phenyl]Propanoic Acid], the figure is 356 nM; as for `Cc1ccc(C2=C(COc3ccc(CCC(=O)O)c(F)c3F)CCCC2)cc1F` [Compound 494, 3-[2,3-difluoro-4-[[2-(3-fluoro-4-methyl-phenyl)cyclohexen-1-yl]methoxy]phenyl]Propanoic Acid], 401 nM.
`Cc1ccc(C2=C(COc3ccc(CCC(=O)O)c(C)c3C)CCCC2)cc1F` [Compound 496, 3-[4-[[2-(3-fluoro-4-methyl-phenyl)cyclohexen-1-yl]methoxy]-2,3-dimethyl-phenyl]Propanoic Acid] registered an EC50 of 352 nM.
To `O=C(O)CCc1ccc(OCC2=C(c3ccc(Cl)cc3)CCC(F)(F)C2)c(F)c1F` [Compound 503, 3-[4-[[2-(4-chlorophenyl)-5,5-difluoro-cyclohexen-1-yl]methoxy]-2,3-difluoro-phenyl]Propanoic Acid] belongs 191 nM.
For the compound `Cc1c(CCC(=O)O)ccc(OCC2=C(c3cccc(Cl)c3)CCCC2)c1C` [Compound 509, 3-[4-[[2-(3-chlorophenyl)cyclohexen-1-yl]methoxy]-2,3-dimethyl-phenyl]Propanoic Acid], the EC50 is 1790 nM.
`O=C(O)CCc1cc(F)c(OCC2=C(c3ccc(Cl)cc3)CCCC2)c(F)c1` [Compound 510, 3-[4-[[2-(4-chlorophenyl)cyclohexen-1-yl]methoxy]-3,5-difluoro-phenyl]Propanoic Acid] yielded an EC50 of 210 nM.
Consider `O=C(O)CCc1ccc(OCC2=C(c3ccc(Cl)cc3)CCCC2)c(F)c1` [Compound 511, 3-[4-[[2-(4-chlorophenyl)cyclohexen-1-yl]methoxy]-3-fluoro-phenyl]Propanoic Acid], for which the response was half-maximal at 187 nM (EC50).
To `Cc1c(CCC(=O)O)ccc(OCC2=C(c3ccc(N(C)C)cc3)CCCC2)c1C` [Compound 512, 3-[4-[[2-(4-dimethylaminophenyl)cyclohexen-1-yl]methoxy]-2,3-dimethyl-phenyl]Propanoic Acid] belongs 803 nM.

Values taken from patent US11230526B1, “Cylcoalkenyl derivatives useful as agonists of the GPR120 and/or GPR40 receptors” (Janssen Pharmaceutica NV, priority 2018, dated 2022).
